What was measured:
[1] = system: ISPD-deficient HAP1 cells; conditions: ISPD-deficient (KO) HAP1 cells; CDP-ribitol added to culture medium at final concentration 1 mM; culture 24 hours; western blot
Description: (§1) In this Example, for HAP1 cells and HEK cells, cells deficient in ISPD were generated using a CRISPR/CAS9 genome editing method. The HAP1 cells are a haploid cell line derived from cultured human leukemia cells (KBM7), and are cells capable of being subjected to genome editing with high efficiency.
(§2) The deficiency mutation of the ISPD-deficient cells was confirmed by DNA sequencing. To each culture medium, CDP-ribitol was added at a final concentration of 1 mM, followed by culture for 24 hours. After the culture, cell endogenous dystroglycan was prepared from a cell extract, and the state of glycosylation was confirmed by a western blot method.

ISPD-deficient HEK cells = conditions: ISPD-deficient (KO) HEK cells; CDP-ribitol 1 mM administered simultaneously with cell transfection reagent (lipofectamine); culture 24 hours; western blot
Description: as §1, §2

cytidine diphosphate ribitol [CDP-ribitol]
state of glycosylation of cell endogenous dystroglycan (α-DG) [1]: caused glycosylation of α-DG similar to that in the normal cells | state of glycosylation of cell endogenous dystroglycan (α-DG) (ISPD-deficient HEK cells): the restoration of the glycan was confirmed

Reference: patent publication US11040087B2, “Therapeutic agent for diseases associated with abnormalities in dystroglycan sugar chain modification and method for assaying associated enzyme” (NATIONAL UNIVERSITY CORPORATION KOBE UNIVERSITY, priority 2016, dated 2021)
